The record followed here is patent US8735406B2, “8-oxodihydropurine derivative” (Dainippon Sumitomo Pharma Co., Ltd., priority 2009, dated 2014).

Read-outs that look alike come from different tables or passages of the source.

The target in this test is T1, FAAH (Rattus norvegicus, UniProt P97612).
T1 construct: Preparation of Rat Brain Membranes Preparations (FAAH Enzyme Solution); from tissue; host or cells: rat cerebrum (brain membrane preparation)
T1 sequence (P97612 1-579): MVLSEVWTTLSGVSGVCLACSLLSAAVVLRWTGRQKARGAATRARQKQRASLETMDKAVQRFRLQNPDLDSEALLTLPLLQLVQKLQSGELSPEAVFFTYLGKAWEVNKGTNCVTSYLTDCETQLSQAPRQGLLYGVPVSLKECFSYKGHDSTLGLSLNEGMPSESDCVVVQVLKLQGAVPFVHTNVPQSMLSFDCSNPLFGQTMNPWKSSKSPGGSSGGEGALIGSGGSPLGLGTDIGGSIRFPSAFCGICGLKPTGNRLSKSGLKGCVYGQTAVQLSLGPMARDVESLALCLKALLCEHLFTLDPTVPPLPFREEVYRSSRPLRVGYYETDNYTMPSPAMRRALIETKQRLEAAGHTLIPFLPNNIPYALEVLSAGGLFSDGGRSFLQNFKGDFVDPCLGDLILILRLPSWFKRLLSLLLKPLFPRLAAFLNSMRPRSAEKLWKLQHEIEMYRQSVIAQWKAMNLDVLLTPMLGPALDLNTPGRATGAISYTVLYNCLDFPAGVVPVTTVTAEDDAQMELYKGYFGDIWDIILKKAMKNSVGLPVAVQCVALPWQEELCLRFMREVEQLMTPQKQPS
The test can be described thus: Determination of FAAH inhibitory activity in rat (rat brain membrane preparations, [3H]-anandamide hydrolysis). In kind it is biochemical. The settings on record: for inhibition at 0.1 µM: read-out: FAAH Inhibition, Inhibition Rate at 100 nM; for IC50: test substance 0.1 nM to 1 μM, read-out: FAAH Inhibition IC50. The method in brief:
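Compounds tested from 0.1 nM to 1 μM to derive IC50 against FAAH hydrolysis in rat brain membrane preparations (100 μg/mL). A 10-min 37 °C preincubation was followed by 10 min with [3H]-anandamide (2 nM) mixed with 2 μM unlabelled anandamide. Radioactive ethanolamine was extracted into the water/methanol layer and counted.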

The mark [1] stands for this setting: rat brain membrane preparations, 100 nM test substance.
The mark [2] stands for this setting: rat brain membrane preparations.

The inhibition is the relative decrease from the control value, in per cent. As a reminder, the IC50 is the point on the concentration scale where inhibition reaches its midpoint. For the compound `COc1cccc(-c2ncc3c(n2)n(C)c(=O)n3C(=O)N2CCN(c3ccc(Cl)cc3)CC2)c1` [Example 142, 7-{[4-(4-Chlorophenyl)piperazin-1-yl]carbonyl}-2-(3-methoxyphenyl)-9-methyl-7,9-dihydro-8H-purine-8-one], the inhibition at 0.1 µM under setting [1] is 99%. Under setting [2], the 50% inhibitory concentration (IC50) was determined as 5 nM.

Turning to `CN(C)C(=O)n1c(=O)n(C)c2nc(-c3cccnc3)ncc21` [Example 143, N,N,9-Trimethyl-8-oxo-2-(pyridin-3-yl)-8,9-dihydro-7H-purine-7-carboxamide], under setting [1], the inhibition at 0.1 µM stood at 100%. Further, under setting [2], the IC50 is 15 nM.

Turning to `CCOc1ccc(N2CCN(C(=O)n3c(=O)n(C)c4nc(-c5cccnc5)ncc43)CC2)cc1` [Example 144, 7-{[4-(4-Ethoxyphenyl)piperazin-1-yl]carbonyl}-9-methyl-2-(pyridin-3-yl)-7,9-dihydro-8H-purine-8-one], under setting [1], the inhibition at 0.1 µM was determined as 100%. Also, under setting [2], the IC50 is less than 1 nM.

On to `CN(CCc1ccc(Cl)cc1)C(=O)n1c(=O)n(C)c2nc(-c3cccnc3)ncc21` [Example 145, N-[2-(4-Chlorophenyl)ethyl]-N,9-dimethyl-8-oxo-2-(pyridin-3-yl)-8,9-dihydro-7H-purine-7-carboxamide], for which the inhibition at 0.1 µM under setting [1] amounted to 100%. The IC50 under setting [2] is less than 1 nM.

`CN(CCOc1ccc(Cl)cc1)C(=O)n1c(=O)n(C)c2nc(-c3cccnc3)ncc21` [Example 146, N-[2-(4-Chlorophenoxy)ethyl]-N,9-dimethyl-8-oxo-2-(pyridin-3-yl)-8,9-dihydro-7H-purine-7-carboxamide]: the inhibition at 0.1 µM under setting [1] is 99%. For the same compound, the concentration for half-maximal inhibition (IC50) under setting [2] was less than 1 nM.

For the compound `Cn1c(=O)n(C(=O)N2CCC(CCc3ccc(Cl)cc3)CC2)c2cnc(-c3cccnc3)nc21` [Example 147, 7-({4-[2-(4-Chlorophenyl)ethyl]piperidin-1-yl}carbonyl)-9-methyl-2-(pyridin-3-yl)-7,9-dihydro-8H-purine-8-one], under setting [1], the inhibition at 0.1 µM was determined as 96%. Further, under setting [2], the IC50 is less than 1 nM.

Consider `CN(C)C(=O)n1c(=O)n(C)c2nc(-c3ccncc3)ncc21` [Example 148, N,N,9-Trimethyl-8-oxo-2-(pyridin-4-yl)-8,9-dihydro-7H-purine-7-carboxamide], for which, under setting [1], the inhibition at 0.1 µM stood at 97%. The IC50 under setting [2] came out at 30 nM.

Regarding `CCOc1ccc(N2CCN(C(=O)n3c(=O)n(C)c4nc(-c5ccncc5)ncc43)CC2)cc1` [Example 149, 7-{[4-(4-Ethoxyphenyl)piperazin-1-yl]carbonyl}-9-methyl-2-(pyridin-4-yl)-7,9-dihydro-8H-purine-8-one], the inhibition at 0.1 µM under setting [1] came to 102%. Further, the IC50 under setting [2] is less than 1 nM.

`CN(CCc1ccc(Cl)cc1)C(=O)n1c(=O)n(C)c2nc(-c3ccncc3)ncc21` [Example 150, N-[2-(4-Chlorophenyl)ethyl]-N,9-dimethyl-8-oxo-2-(pyridin-4-yl)-8,9-dihydro-7H-purine-7-carboxamide]: the inhibition at 0.1 µM is 106%. Besides, the IC50 under setting [2] is less than 1 nM.

For `CN(CCOc1ccc(Cl)cc1)C(=O)n1c(=O)n(C)c2nc(-c3ccncc3)ncc21` [Example 151, N-[2-(4-Chlorophenoxy)ethyl]-N,9-dimethyl-8-oxo-2-(pyridin-4-yl)-8,9-dihydro-7H-purine-7-carboxamide], the inhibition at 0.1 µM under setting [1] came to 102%. For the same compound, the IC50 under setting [2] came to 0.5 nM.

As for `Cn1c(=O)n(C(=O)N2CCC(CCc3ccc(Cl)cc3)CC2)c2cnc(-c3ccncc3)nc21` [Example 152, 7-({4-[2-(4-Chlorophenyl)ethyl]piperidin-1-yl}carbonyl)-9-methyl-2-(pyridin-4-yl)-7,9-dihydro-8H-purine-8-one], the inhibition at 0.1 µM under setting [1] was determined as 102%. Under setting [2], the IC50 was 0.6 nM.

As for `CN(CCc1ccc(Cl)cc1)C(=O)n1c(=O)n(C)c2nc(C3CC3)ncc21` [Example 153, N-[2-(4-Chlorophenyl)ethyl]-2-cyclopropyl-N,9-dimethyl-8-oxo-8,9-dihydro-7H-purine-7-carboxamide], the inhibition at 0.1 µM under setting [1] is 99%. Besides, the half-maximal inhibitory concentration (IC50) under setting [2] was found to be 27 nM.

Turning to `CCCc1ncc2c(n1)n(C)c(=O)n2C(=O)N(C)CCc1ccc(Cl)cc1` [Example 154, N-[2-(4-Chlorophenyl)ethyl]-N,9-dimethyl-8-oxo-2-propyl-8,9-dihydro-7H-purine-7-carboxamide], under setting [1], the inhibition at 0.1 µM came to 101%. For the same compound, under setting [2], the half-maximal inhibitory concentration (IC50) stood at 2 nM.

Turning to `CCCCc1ncc2c(n1)n(C)c(=O)n2C(=O)N(C)CCc1ccc(Cl)cc1` [Example 155, 2-Butyl-N-[2-(4-chlorophenyl)ethyl]-N,9-dimethyl-8-oxo-8,9-dihydro-7H-purine-7-carboxamide], the inhibition at 0.1 µM under setting [1] came out at 102%. Moreover, under setting [2], the IC50 stood at 4 nM.

As for `CN(CCc1ccc(Cl)cc1)C(=O)n1c(=O)n(C)c2nc(C3CCCCC3)ncc21` [Example 156, N-[2-(4-Chlorophenyl)ethyl]-2-cyclohexyl-N,9-dimethyl-8-oxo-8,9-dihydro-7H-purine-7-carboxamide], under setting [1], the inhibition at 0.1 µM was 96%. Further, the IC50 under setting [2] stood at 10 nM.

In the case of `Cc1ncc2c(n1)n(C)c(=O)n2C(=O)N(C)CCc1ccc(Cl)cc1` [Example 157, N-[2-(4-Chlorophenyl)ethyl]-N,2,9-trimethyl-8-oxo-8,9-dihydro-7H-purine-7-carboxamide], the inhibition at 0.1 µM under setting [1] worked out at 103%. Under setting [2], the IC50 was less than 10 nM.

Take `CN(CCc1ccc(Cl)cc1)C(=O)n1c(=O)n(C)c2nc(Cc3ccccc3)ncc21` [Example 158, 2-Benzyl-N-[2-(4-chlorophenyl)ethyl]-N,9-dimethyl-8-oxo-8,9-dihydro-7H-purine-7-carboxamide]: the inhibition at 0.1 µM under setting [1] came to 102%. Further, under setting [2], the IC50 is less than 1 nM.

As for `CCN(C)C(=O)n1c(=O)n(C)c2nc(C3CC3)ncc21` [Example 159], the inhibition at 0.1 µM under setting [1] turned out to be 61%. The IC50 under setting [2] was 81 nM.

In the case of `CCN(C)C(=O)n1c(=O)n(C)c2nc(CC(C)(C)C)ncc21` [Example 160, 2-(2,2-Dimethylpropyl)-N-ethyl-N,9-dimethyl-8-oxo-8,9-dihydro-7H-purine-7-carboxamide], the inhibition at 0.1 µM under setting [1] worked out at 98%. Moreover, the IC50 under setting [2] turned out to be 14 nM.

In the case of `CCCCc1ncc2c(n1)n(C)c(=O)n2C(=O)N(C)CC` [Example 161, 2-Butyl-N-ethyl-N,9-dimethyl-8-oxo-8,9-dihydro-7H-purine-7-carboxamide], under setting [1], the inhibition at 0.1 µM came to 93%. Also, under setting [2], the IC50 is 19 nM.

Take `CCN(C)C(=O)n1c(=O)n(C)c2nc(C3CCCCC3)ncc21` [Example 162, 2-Cyclohexyl-N-ethyl-N,9-dimethyl-8-oxo-8,9-dihydro-7H-purine-7-carboxamide]: the inhibition at 0.1 µM under setting [1] worked out at 72%. Besides, under setting [2], the IC50 turned out to be 38 nM.

As for `CCN(C)C(=O)n1c(=O)n(C)c2nc(C)ncc21` [Example 163], the inhibition at 0.1 µM under setting [1] turned out to be 27%. Under setting [2], the half-inhibitory concentration (IC50) is more than 100 nM.

`Cn1c(=O)n(C(=O)N2CCC2)c2nc(CCc3cccc(F)c3)ncc21` [Example 164, 9-(Azetidin-1-ylcarbonyl)-2-[2-(3-fluorophenyl)ethyl]-7-methyl-7,9-dihydro-8H-purine-8-one]: the inhibition at 0.1 µM under setting [1] is 98%. Further, under setting [2], the half-maximal inhibitory concentration (IC50) came out at 5 nM.

Turning to `CN(C)C(=O)n1c(=O)n(C)c2cnc(CCc3cccc(F)c3)nc21` [Example 165, 2-[2-(3-Fluorophenyl)ethyl]-N,N,7-trimethyl-8-oxo-7,8-dihydro-9H-purine-9-carboxamide], the inhibition at 0.1 µM under setting [1] is 103%. For the same compound, the half-inhibitory concentration (IC50) under setting [2] stood at 4 nM.

As to `Cn1c(=O)n(C(=O)N2CCCC2)c2cnc(-c3ccccc3F)nc21` [Example 166, 2-(2-fluorophenyl)-9-methyl-7-(pyrrolidin-1-ylcarbonyl)-7,9-dihydro-8H-purine-8-one], the inhibition at 0.1 µM under setting [1] amounted to 99%. Moreover, under setting [2], the IC50 was determined as 24 nM.

In the case of `Cn1c(=O)n(C(=O)N2CCCC2)c2cnc(-c3cccc(F)c3)nc21` [Example 167, 2-(3-Fluorophenyl)-9-methyl-7-(pyrrolidin-1-ylcarbonyl)-7,9-dihydro-8H-purine-8-one], the inhibition at 0.1 µM under setting [1] stood at 101%. Besides, the IC50 under setting [2] was found to be 6 nM.

As for `Cn1c(=O)n(C(=O)N2CCCC2)c2cnc(-c3ccc(F)cc3)nc21` [Example 168, 2-(4-Fluorophenyl)-9-methyl-7-(pyrrolidin-1-ylcarbonyl)-7,9-dihydro-8H-purine-8-one], the inhibition at 0.1 µM under setting [1] was found to be 100%. For the same compound, the IC50 under setting [2] was found to be 6 nM.

As to `Cc1cccc(-c2ncc3c(n2)n(C)c(=O)n3C(=O)N2CCCC2)c1` [Example 170, 9-Methyl-2-(3-methylphenyl)-7-(pyrrolidin-1-ylcarbonyl)-7,9-dihydro-8H-purine-8-one], under setting [1], the inhibition at 0.1 µM came out at 98%. Besides, under setting [2], the half-inhibitory concentration (IC50) amounted to 7 nM.

Consider `Cc1ccc(-c2ncc3c(n2)n(C)c(=O)n3C(=O)N2CCCC2)cc1` [Example 171, 9-Methyl-2-(4-methylphenyl)-7-(pyrrolidin-1-ylcarbonyl)-7,9-dihydro-8H-purine-8-one], for which, under setting [1], the inhibition at 0.1 µM stood at 102%. Further, the IC50 under setting [2] turned out to be 19 nM.
